Some test systems named below: CAKI-1 renal; HL-60(TB) leukemia; HT29 colon; NCI-H23 lung; NCI-H522 lung; OVCAR-3 ovarian; SN12C renal; SNB-75 CNS; TK-10 renal; UACC-62 melanoma.
Holding throughout (experiment): DTP human tumour cell line panel, 48 h

By GI50 is commonly meant the concentration at which growth is held to half of that of the control. As usually defined, the TGI is the concentration giving total growth inhibition. Higher therefore signals lower sensitivity of the cells.

Molecules are shown by their SMILES.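 48-hour exposure; five concentrations; linearly interpolated endpoints. Here, GI50 denotes the concentration required for 50% inhibition of growth. TGI: total growth inhibition.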 Bounds are passed on as bounds.

Consider `COc1cc2cc(C(=O)Nc3cc(N)c4ccccc4c3CCCl)[nH]c2c(OC)c1OC`, for which the 50% growth inhibitory concentration (GI50) with CAKI-1 renal was 0.0193 µM; in the assay with HL-60(TB) leukemia, 0.0361 µM; in the assay with HT29 colon, 0.0438 µM; in the assay with NCI-H23 lung, 0.0166 µM; with NCI-H522 lung it was 0.0153 µM; with OVCAR-3 ovarian it was 0.0262 µM. Moreover, the 50% growth inhibitory concentration (GI50) in the assay with SN12C renal was 0.0548 µM; with SNB-75 CNS, 0.0656 µM; with TK-10 renal, 0.0932 µM; in the assay on UACC-62 melanoma, 0.0717 µM. The TGI in the assay on HL-60(TB) leukemia came out at 0.237 µM; with HT29 colon, 12.7 µM; in the assay on NCI-H23 lung it was 0.264 µM; with NCI-H522 lung, 0.271 µM; with SN12C renal, 0.611 µM; in the assay on SNB-75 CNS it was 0.202 µM. Besides, the values for the concentration for total growth inhibition (TGI) in the assay with TK-10 renal and in the assay on UACC-62 melanoma were 6.36 µM and 0.154 µM, respectively.

Turning to `CN1CCCCCC(=N\O)/C(=N/O)CCCCC1`, the TGI in the assay on CAKI-1 renal, in the assay on HL-60(TB) leukemia, in the assay on HT29 colon, in the assay with NCI-H23 lung, in the assay on NCI-H522 lung and in the assay with OVCAR-3 ovarian was above 100 µM in each case. Further, the TGI with SN12C renal, in the assay on SNB-75 CNS and in the assay with TK-10 renal was above 100 µM in each case.

`COc1cc2c(Oc3ccc4[nH]c(C)cc4c3F)ccnc2cc1OCC1(N)CC1`: the GI50 is 1.04 µM with CAKI-1 renal; 0.382 µM with HL-60(TB) leukemia; 0.874 µM in the assay with HT29 colon; 1.27 µM in the assay with NCI-H522 lung; 0.809 µM in the assay on OVCAR-3 ovarian; 1.78 µM in the assay on SN12C renal. Also, the figures for the GI50 in the assay on SNB-75 CNS, with TK-10 renal and in the assay on UACC-62 melanoma were 0.651 µM, 7.89 µM and 1.64 µM, respectively. The TGI was 6.99 µM with CAKI-1 renal; 1.95 µM in the assay with HL-60(TB) leukemia; 3.3 µM in the assay on HT29 colon; 3.46 µM with NCI-H522 lung; 24.7 µM in the assay on OVCAR-3 ovarian; 7.56 µM in the assay on SN12C renal. Moreover, the concentration for total growth inhibition (TGI) in the assay with SNB-75 CNS worked out at 2.46 µM; in the assay with TK-10 renal it was 26.2 µM; with UACC-62 melanoma, 3.79 µM.

`CC(=O)Nc1c(C)ccc2c1C(=O)c1ccccc1C2=O`: the total growth inhibition concentration (TGI) in the assay on CAKI-1 renal, in the assay with HL-60(TB) leukemia, in the assay with HT29 colon, with NCI-H522 lung, with SN12C renal and in the assay with SNB-75 CNS was above 100 µM throughout. The concentration for total growth inhibition (TGI) with TK-10 renal and in the assay with UACC-62 melanoma was above 100 µM in each case.

`CCCC(C)C[C@@H](C)CC(C)/C=C(\C)c1oc(=O)c(C)c(O)c1C` (stereo partly drawn) (tested in a mixture with another compound): the total growth inhibition concentration (TGI) was 28.1 µM in the assay with CAKI-1 renal; 29.8 µM in the assay with HL-60(TB) leukemia; 27.6 µM with HT29 colon; 31.1 µM in the assay on NCI-H522 lung; 18.9 µM with OVCAR-3 ovarian; 29.1 µM in the assay on SN12C renal. The results for the concentration for total growth inhibition (TGI) with SNB-75 CNS and in the assay with TK-10 renal were 28.3 µM and 33.7 µM, respectively.

Turning to `Nc1ncn(C2C=C(CO)C(O)C2O)c(=O)n1` (stereo not drawn), the total growth inhibition concentration (TGI) in the assay with CAKI-1 renal, in the assay with HL-60(TB) leukemia, with NCI-H522 lung, in the assay with OVCAR-3 ovarian, in the assay on SN12C renal and in the assay with SNB-75 CNS was above 100 µM throughout. The TGI in the assay with TK-10 renal and with UACC-62 melanoma was above 100 µM each time.

`CC[O-].CC[O-].O=C1C(c2ccccc2)=C([O-])c2ccccc21.O=C1C(c2ccccc2)=C([O-])c2ccccc21.[Ti+4]`: the GI50 in the assay on CAKI-1 renal, with HL-60(TB) leukemia, in the assay with HT29 colon, in the assay with NCI-H23 lung, in the assay with NCI-H522 lung and in the assay on OVCAR-3 ovarian was above 100 µM in each case. In addition, the results for the GI50 with SN12C renal, with SNB-75 CNS and in the assay with UACC-62 melanoma were above 100 µM, above 100 µM and 72.6 µM, respectively. Besides, the concentration for total growth inhibition (TGI) in the assay on CAKI-1 renal, with HL-60(TB) leukemia, in the assay with HT29 colon, in the assay on NCI-H23 lung, in the assay on NCI-H522 lung and with OVCAR-3 ovarian was above 100 µM throughout. The TGI with SN12C renal, with SNB-75 CNS and in the assay on UACC-62 melanoma was above 100 µM in each case.

Regarding `C[C@]12CC[C@H](OCCC#N)CC1=CC[C@@H]1C2CC[C@]2(C)/C(=N/OCCC#N)CCC12` (stereo partly drawn), the TGI with CAKI-1 renal, in the assay on HL-60(TB) leukemia, with NCI-H23 lung, in the assay on NCI-H522 lung, in the assay with OVCAR-3 ovarian and with SN12C renal was above 100 µM in each case. The concentration for total growth inhibition (TGI) was above 78.9 µM with SNB-75 CNS, above 88.6 µM in the assay with TK-10 renal and above 100 µM in the assay on UACC-62 melanoma.

Take `COc1ccc2c(CN3CCC[C@H]3C(=O)O)cc3cc4c(cc3c2c1)OCO4`: the GI50 in the assay with CAKI-1 renal was 25 µM; in the assay on HL-60(TB) leukemia, 22.9 µM; in the assay on HT29 colon it was 8.46 µM; in the assay on NCI-H522 lung it was 11.1 µM; with OVCAR-3 ovarian, 12 µM; in the assay on SN12C renal, 6.04 µM. In addition, the GI50 with SNB-75 CNS is 11.4 µM; in the assay on TK-10 renal it was 14.7 µM; in the assay on UACC-62 melanoma it was 10.9 µM. The TGI was 88.6 µM in the assay on CAKI-1 renal; 67.8 µM in the assay with HL-60(TB) leukemia; 62 µM in the assay with HT29 colon; 95.2 µM in the assay with NCI-H522 lung; 63 µM in the assay on OVCAR-3 ovarian; 73.2 µM in the assay on SN12C renal. Also, the values for the TGI in the assay on SNB-75 CNS, with TK-10 renal and with UACC-62 melanoma were 30.1 µM, 67.4 µM and 23.7 µM, respectively.

As for `Cc1cc2cc3c(C)cc(=O)oc3c(C)c2o1`, the total growth inhibition concentration (TGI) in the assay with CAKI-1 renal, in the assay on HL-60(TB) leukemia, with HT29 colon, in the assay on NCI-H23 lung, in the assay with NCI-H522 lung and with OVCAR-3 ovarian was above 100 µM throughout. The TGI with SN12C renal, in the assay with SNB-75 CNS and with UACC-62 melanoma was above 100 µM throughout.

The values above are taken from PubChem BioAssay (NCI).
